In PubChem BioAssay AID449764 (Southern Research Specialized Biocontainment Screening …, 2010) one finds IC50 and IC90 data, which are given here for 50 compounds.

This assay has as its system Mycobacterium tuberculosis H37Rv growth inhibition, no glycerol. The assay can be described thus: Confirmatory growth inhibition assay, Mycobacterium tuberculosis H37Rv, absence of glycerol (AID 449764).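 On all read-outs here: growth read after 7 days of incubation.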 The note with it: for IC90: measured here: IC90 growth inhibition.

One may read the IC50 as the midpoint of a concentration-inhibition curve. What is called IC90 is the concentration needed for an effect of 90%. High values mean a need for much substance, low ones an effect from little substance.

As to `CN1OC(COC(=O)c2ccc(Cl)cc2Cl)CC1c1ccccc1` (stereo not given), the IC50 was 7.6 µM and the 90% effect concentration (IC90) was 22.3 µM.

For the compound `Cc1ccc(-n2cc(CN(C)Cc3nccn3C)c(-c3cccc(C)c3)n2)cc1`, the IC50 was 13.1 µM and the concentration for an effect of 90% (IC90) was 17.4 µM.

With `Cc1cc2nc(/N=C(\N)NC(=O)C(C)C)nc(C)c2cc1C`, the concentration for half-maximal inhibition (IC50) was 18.1 µM and the IC90 was over 100 µM.

Consider `CC(=O)N1CCN(c2ccc(Oc3ccc([N+](=O)[O-])c(C(F)(F)F)c3)cc2)CC1`, for which the half-maximal inhibitory concentration (IC50) was 93.5 µM and the 90% effect concentration (IC90) was over 100 µM.

For the compound `CC(=O)OCC1O[C@@H](O[C@@H]2C[C@H]3C(C)(C)[C@H](OC(C)=O)CC[C@]3(C)[C@H]3CC[C@]45C[C@]4(CC[C@H]5[C@@H](C)C[C@@H](O)[C@H](O)C(C)(C)O)[C@@]32C)[C@H](O)[C@@H](O)[C@@H]1O` (stereo not given in full), the half-inhibitory concentration (IC50) is 25.9 µM and the IC90 was 35.7 µM.

`Cc1cccc(-c2ncc(CN3CCC(CO)(CCCc4ccccc4)CC3)cn2)c1`: the IC50 is 48.5 µM and the IC90 was found to be 55.1 µM.

For the compound `O=C(Nc1ccc(OCC(F)(F)C(F)F)c(C(F)(F)F)c1)c1ccc(Cl)cc1`, the IC50 was 33.2 µM and the IC90 worked out at 46.9 µM.

`O=C(CSc1nc2ccccc2c(=O)[nH]1)NCc1ccc(Cl)cc1`: the concentration for half-maximal inhibition (IC50) was 2.78 µM and the IC90 worked out at 3.22 µM.

For `Cc1cc2oc3ccc(NCCCn4ccnc4)cc3c(=O)c2cc1C`, the IC50 was 23.2 µM and the IC90 came to 25.7 µM.

`COc1ccc(/C=N/Nc2cc(N3CCCC3)nc(N3CCCC3)n2)cc1`: the half-inhibitory concentration (IC50) is 18.6 µM and the IC90 was 24 µM.

Consider `COc1ccc(N(CC(=O)Nc2ccccc2C(N)=O)S(=O)(=O)c2ccc(C)c([N+](=O)[O-])c2)cc1`, for which the IC50 is 96.9 µM and the 90% effect concentration (IC90) was over 100 µM.

`CNc1ccc2nc3ccccc3[n+](C)c2c1`: the IC50 is 1.16 µM and the concentration for an effect of 90% (IC90) was found to be 1.68 µM.

On to `O=C(Nc1cccc(-c2nc3ccccc3s2)c1)c1cc(-n2cnnc2)ccc1Cl`, for which the IC50 was 14 µM and the 90% effect concentration (IC90) turned out to be 22 µM.

`CCCCC(=O)OCC(=O)N1N=C(c2c[nH]c3ccccc23)C(O)C1c1ccc(OC)cc1` (stereo not given): the half-inhibitory concentration (IC50) is 22 µM and the concentration for an effect of 90% (IC90) is 25.1 µM.

For the compound `CCN(CC(=O)NCc1cccs1)C(=O)c1ccc([N+](=O)[O-])o1`, the 50% inhibitory concentration (IC50) was 91.9 µM and the IC90 is over 100 µM.

Turning to `CC(=O)N1CCN(c2ccc(OC[C@H]3CO[C@](Cn4ccnc4)(c4ccc(Cl)cc4Cl)O3)cc2)CC1`, the IC50 is 14.6 µM and the concentration for an effect of 90% (IC90) was found to be 20.8 µM.

As to `COc1ccccc1C(CNC(=O)C(C)(C)Oc1ccc(Cl)cc1)N1CCCC1` (stereo not given), the 50% inhibitory concentration (IC50) is 27 µM and the 90% effect concentration (IC90) was determined as 42 µM.

In the case of `O=C(CCC(=O)NC1CCCCCCC1)Nc1nnc(C(F)(F)F)s1`, the IC50 is 12.1 µM and the concentration for an effect of 90% (IC90) worked out at 13.8 µM.

`Cc1ccc(Cl)cc1N1CCN(C(=O)C2CCC(=O)N(C3CCCCCC3)C2)CC1` (stereo not given): the IC50 was 28.7 µM and the IC90 was 40.4 µM.

Take `CSCCC1NC(=O)N(CC(=O)N2N=C(c3ccc(Cl)cc3)CC2c2ccco2)C1=O` (stereo not given): the IC50 is 10.9 µM and the 90% effect concentration (IC90) came out at 13.6 µM.

Consider `CCOc1ccc(N2CC(=O)Nc3ccccc3NCC2=O)cc1`, for which the IC50 is 55.7 µM and the IC90 was 83.1 µM.

Turning to `O=C1C(=O)c2ccccc2-c2ccccc21`, the half-inhibitory concentration (IC50) was 7.83 µM and the concentration for an effect of 90% (IC90) was determined as 10.6 µM.

For `COc1ccc(C(=O)OCCNC(=O)c2c(Cl)nc3ccccn23)cc1`, the IC50 is 4.19 µM and the IC90 came out at 10.6 µM.

`Oc1cc(NCc2cccnc2)ccc1-c1nc2ccccc2o1`: the half-inhibitory concentration (IC50) is 31.6 µM and the IC90 amounted to 61.3 µM.

On to `CSC(=S)NCc1cccnc1`, for which the IC50 is 29.1 µM and the 90% effect concentration (IC90) was 41.9 µM.

Turning to `CSc1nsc(SCC(=O)N2CCCCC2)n1`, the IC50 was 8.65 µM and the IC90 came to 12.9 µM.

On to `CCc1ccc(/C(C)=N/Nc2cc(Cl)nc(C)n2)cc1`, for which the half-inhibitory concentration (IC50) was 34.1 µM and the concentration for an effect of 90% (IC90) was 59.5 µM.

As for `CN(C)CCCN(C(=O)c1ccc([N+](=O)[O-])s1)c1nc2cc3c(cc2s1)OCCO3`, the IC50 is 35.8 µM and the concentration for an effect of 90% (IC90) was 62.2 µM.

In the case of `Nc1c(N(CCC2=CCCCC2)C(=O)c2ccc([N+](=O)[O-])o2)c(=O)[nH]c(=O)n1Cc1ccccc1`, the IC50 is 27.9 µM and the IC90 was found to be 48.2 µM.

Regarding `O=C(CSc1cccc[n+]1[O-])c1cccs1`, the IC50 was 34.9 µM and the 90% effect concentration (IC90) came to 42.2 µM.

As to `Nc1ccc(-c2nc3nc(N)nc(N)c3nc2-c2ccc(N)cc2)cc1`, the half-inhibitory concentration (IC50) is 48.8 µM and the IC90 is over 100 µM.

With `COc1ccc(C)c2sc(N(CCN(C)C)C(=O)/C=C/c3cccs3)nc12`, the concentration for half-maximal inhibition (IC50) was 30.6 µM and the IC90 came out at 36.1 µM.

Consider `O=C(C/C=N\OCc1ccc([N+](=O)[O-])cc1)Nc1ccc(F)cc1F`, for which the half-maximal inhibitory concentration (IC50) was 82.9 µM and the 90% effect concentration (IC90) was over 100 µM.

Regarding `CCOC(=O)CSCC(=O)N1CCC(Cc2ccccc2)CC1`, the IC50 is 9.38 µM and the concentration for an effect of 90% (IC90) worked out at 16.2 µM.

For `CCOC(=O)c1cnc(SC2CCc3ccccc3C2=O)nc1N` (stereo not given), the IC50 was 87.1 µM and the concentration for an effect of 90% (IC90) stood at 96.5 µM.

As for `Cn1nnnc1Sc1ncnc2scc(-c3cc4ccccc4o3)c12`, the IC50 was 5.11 µM and the 90% effect concentration (IC90) is 12.1 µM.

As to `O=C(C1=C[C@@H](c2csc3ccccc23)C[C@@H](OCCCCO)O1)N1CCN(Cc2ccc3c(c2)OCO3)CC1`, the IC50 was 33.9 µM and the IC90 turned out to be 53.6 µM.

As for `O=C1CC(=C(c2ccccc2)c2ccccc2)C(=O)N1CCCCN1CCN(c2ccccc2)CC1`, the 50% inhibitory concentration (IC50) was 25.3 µM and the 90% effect concentration (IC90) came out at 28.8 µM.

For the compound `Cn1c(=O)c2c3c(sc2n2c(SCC(N)=O)nnc12)CC(C(C)(C)C)CC3` (stereo not given), the concentration for half-maximal inhibition (IC50) was 24.7 µM and the 90% effect concentration (IC90) is 41.7 µM.

As to `OCCCNc1cc(-c2ccnc(Nc3cccc(Cl)c3)n2)ccn1`, the IC50 was 73.3 µM and the concentration for an effect of 90% (IC90) worked out at 96 µM.

Take `O=C(Nc1ccc(N2CCN(C(=O)c3ccco3)CC2)cc1)C(c1ccccc1)c1ccccc1`: the IC50 was 24.1 µM and the concentration for an effect of 90% (IC90) was 27.2 µM.

For `Cc1cc(NC(=O)c2sccc2C)n(-c2nc3ccccc3[nH]2)n1`, the half-inhibitory concentration (IC50) is 10.2 µM and the 90% effect concentration (IC90) is over 100 µM.

With `NC(=S)N/N=C/c1ccc(-c2ccccc2)o1`, the IC50 is 44 µM and the IC90 worked out at 90.7 µM.

`Cc1ccc2c(c1)c(C1=c3ccccc3=NC1=O)c(O)n2C`: the IC50 was 2.95 µM and the IC90 amounted to 4.82 µM.

For `Cc1ccc(C(=O)CC(SCC(=O)O)c2ccc([N+](=O)[O-])cc2)cc1` (stereo not given), the IC50 was 10.8 µM and the IC90 was 12.1 µM.

`CS/C(Nc1cc(Cl)ccc1Cl)=C(/C#N)C(=O)c1ccco1`: the IC50 was 20.4 µM and the IC90 was over 100 µM.

`COc1ccc(-c2nnc(NC(=O)c3ccc([N+](=O)[O-])o3)o2)c(OC)c1`: the half-inhibitory concentration (IC50) was 6.13 µM and the 90% effect concentration (IC90) is 14 µM.

In the case of `C#CCn1c(=NC(=O)c2cc(Cl)sc2Cl)sc2cc(S(N)(=O)=O)ccc21`, the IC50 was 12 µM and the concentration for an effect of 90% (IC90) came out at 34.1 µM.

Regarding `CSC(=S)N/N=C/c1ccccc1`, the IC50 was 39.8 µM and the concentration for an effect of 90% (IC90) turned out to be 54.1 µM.

With `O=C(/C=C/c1ncc(C(F)(F)F)cc1Cl)OCc1ccccc1`, the IC50 was 90.5 µM and the concentration for an effect of 90% (IC90) was over 100 µM.
